Experimental findings from patent publication US9108923B2, “Compounds, compositions, and methods for cancer therapy” (The Broad Institute, Inc., priority 2012, dated 2015) are described below.

In general, EC50 refers to the concentration that produces a half-maximal response.

Each structure is given as a SMILES string. Like-named read-outs stand apart in the source and are kept apart here. A value given as a limit tells only on which side of the number the result lay.

Assay [1] relates to HeLa. Nature of the assay: ATP Assay (CellTiter-Glo), cellular ATP levels as surrogate for cell viability. The note with it: cellular ATP levels, 48 h, read-out: EC50 HeLa. In kind it is cell-based, human. The protocol: (§1) ATP Assay. […] At that time, media was removed and replaced with a solution of CellTiter-Glo reagent (Promega) in PBS. After ten minutes, luminescence was read using an EnVision multilabel plate reader (Perkin-Elmer) and signal intensity was calculated relative to in-plate DMSO control wells.
(§2) We next sought to determine the performance of the synthetic analogs relative to PL in cells. […] As a second assay, effects of compound treatments on ATP levels, a surrogate for cell viability, were measured after 48 hours.
(§3) Assays were performed in 384-well plates on two human cancer cell lines, H1703 (lung) and HeLa (cervix).

The subject of assay [2] is H1703. Described as above. The assay is classed as cell-based, human. The settings on record: cellular ATP levels, 48 h, read-out: EC50 H1703. The protocol:
as §1, §2, §3

The mark [3] stands for this setting: Homo sapiens, NCI-H1703, Table 2.
Where [4] appears, read: Homo sapiens, NCI-H1703, Table 1.

On to `O=C1C=CCCN1C(=O)c1cc2ccccc2oc1=O` [compound 34], for which the EC50 in assay [1] (Homo sapiens, HeLa, Table 2) was found to be 15 µM; in assay [2] (setting [3]), 5 µM.

Regarding `O=C1C=CCCN1C(=O)c1cc2ccccc2o1` [compound 15], the EC50 in assay [1] (Homo sapiens, HeLa, Table 2) is 20 µM; in assay [2] (setting [3]) it was 10 µM.

Take `COc1cc(/C=C/C(=O)N2C(=O)C=CCC2c2cccs2)cc(OC)c1OC` (stereo not shown) [compound 10]: the concentration for a half-maximal effect (EC50) in assay [1] (Homo sapiens, HeLa, Table 2) stood at 4 µM; in assay [2] (setting [3]), 2 µM.

As for `O=C(C#Cc1ccccc1)N1CCC=CC1=O` [compound 75], the EC50 in assay [1] (Homo sapiens, HeLa, Table 2) was found to be 4.1 µM; in assay [2] (setting [3]), 0.91 µM.

On to `COC1=CC(=O)N(C(=O)/C=C/c2cc(OC)c(OC)c(OC)c2)C1` [compound 19], for which the EC50 in assay [1] (Homo sapiens, HeLa, Table 2) was above 20 µM.

With `COc1cc(/C=C/C(=O)N2CC(c3cccs3)C=CC2=O)cc(OC)c1OC` (stereo not shown) [compound 15], the half-maximal effective concentration (EC50) in assay [1] (Homo sapiens, HeLa, Table 1) is 15 µM; in assay [2] (setting [4]), 6.5 µM.

`COc1cc(/C=C/C(=O)N2CCC=C(c3ccc(Oc4ccccc4)cc3)C2=O)cc(OC)c1OC` [compound 71]: the 50% effective concentration (EC50) is above 20 µM in assay [1] (Homo sapiens, HeLa, Table 2) and above 20 µM in assay [2] (setting [3]).

Consider `O=C1C=CCCN1C(=O)/C=C/c1cccc(C(F)(F)F)c1` [compound 18], for which the EC50 in assay [1] (Homo sapiens, HeLa, Table 2) was 6 µM; in assay [2] (setting [3]), 5 µM.

In the case of `COc1cc(/C=C/C(=O)N2CCC=C(C#Cc3ccccc3)C2=O)cc(OC)c1OC` [compound 61], the EC50 in assay [1] (Homo sapiens, HeLa, Table 2) is 1.5 µM; in assay [2] (setting [3]), 0.5 µM.

For `COc1cc(/C=C/C(=O)N2CCC(C)=CC2=O)cc(OC)c1OC` [compound 8], the EC50 in assay [1] (Homo sapiens, HeLa, Table 1) was above 20 µM; in assay [2] (setting [4]), above 20 µM.

Consider `O=C1C=CCCN1C(=O)/C=C/c1ccc(/C=C/C(=O)N2CCC=CC2=O)cc1` [compound 78], for which the EC50 in assay [1] (Homo sapiens, HeLa, Table 2) came to 0.78 µM; in assay [2] (setting [3]) it was 0.3 µM.

With `COc1cc(/C=C/C(=O)N2CCC=C(I)C2=O)cc(OC)c1OC` [compound 55], the EC50 in assay [1] (Homo sapiens, HeLa, Table 2) is above 20 µM; in assay [2] (setting [3]), 3 µM.

As for `COc1cc(/C=C/C(=O)N2CCC=C(C#CC(C)(C)C)C2=O)cc(OC)c1OC` [compound 43], the EC50 in assay [1] (Homo sapiens, HeLa, Table 2) came out at 1.2 µM; in assay [2] (setting [3]), 0.7 µM.

For `COc1cc(/C=C/C(=O)N2CCC=C(C#Cc3ccc(OC(F)(F)F)cc3)C2=O)cc(OC)c1OC` [compound 48], the EC50 in assay [1] (Homo sapiens, HeLa, Table 2) was 3 µM; in assay [2] (setting [3]), 0.7 µM.

Regarding `CCCCC#CC1=CCCN(C(=O)/C=C/c2cc(OC)c(OC)c(OC)c2)C1=O` [compound 31], the concentration for a half-maximal effect (EC50) was determined as 2 µM in assay [1] (Homo sapiens, HeLa, Table 2) and 0.9 µM in assay [2] (setting [3]).

For the compound `COc1cc(/C=C/C(=O)N2C(=O)C=CCC2C2CCCC2)cc(OC)c1OC` (stereo not shown) [compound 12], the EC50 in assay [1] (Homo sapiens, HeLa, Table 2) worked out at 6 µM; in assay [2] (setting [3]), 6 µM.

Consider `COc1cc(/C=C/C(=O)N2C(=O)C=CCC2c2ccccc2)cc(OC)c1OC` (stereo not shown) [compound 50], for which the EC50 in assay [1] (Table 2) amounted to 6.8 µM; in assay [2] (Table 2) it was 3.6 µM.

Regarding `CCC1=C(C)CN(C(=O)/C=C/c2cc(OC)c(OC)c(OC)c2)C1=O` [compound 21], the EC50 in assay [1] (Homo sapiens, HeLa, Table 2) was above 20 µM; in assay [2] (setting [3]), above 20 µM.

As to `COc1ccc(C2CC=CC(=O)N2C(=O)/C=C/c2cc(OC)c(OC)c(OC)c2)cc1` (stereo not shown) [compound 9], the EC50 in assay [1] (Homo sapiens, HeLa, Table 2) was determined as 7 µM; in assay [2] (setting [3]), 4 µM.

`COc1cc(/C=C/C(=O)N2CCC=CC2=O)cc(OC)c1OCCN(C)C` [compound 32]: the EC50 was determined as 4 µM in assay [1] (Homo sapiens, HeLa, Table 2) and 1.5 µM in assay [2] (setting [3]).

`O=C1C=CCCN1C(=O)c1ccc2ccccc2c1` [compound 22]: the EC50 is 20 µM in assay [1] (Homo sapiens, HeLa, Table 2) and 9 µM in assay [2] (setting [3]).

As to `O=C1C=CCCN1C(=O)c1cc2ccccc2s1` [compound 28], the EC50 is above 20 µM in assay [1] (Table 2) and 18 µM in assay [2] (Table 2).

In the case of `COc1cc(CCC(=O)N2CCCCC2=O)cc(OC)c1OC` [compound 65], the EC50 in assay [1] (Homo sapiens, HeLa, Table 2) is above 20 µM.

`CCCCCCCCCCC#CC1=CCCN(C(=O)/C=C/c2cc(OC)c(OC)c(OC)c2)C1=O` [compound 57]: the EC50 in assay [1] (Homo sapiens, HeLa, Table 2) amounted to 9 µM; in assay [2] (setting [3]), 4 µM.

In the case of `COc1cc(/C=C/C(=O)N2C(=O)C=CCC2c2cccnc2)cc(OC)c1OC` (stereo not shown) [compound 8], the EC50 in assay [1] (Homo sapiens, HeLa, Table 2) was determined as 6 µM; in assay [2] (setting [3]), 3 µM.

With `COc1cc(/C=C(\C)C(=O)N2CCC=CC2=O)cc(OC)c1OC` [compound 37], the 50% effective concentration (EC50) in assay [1] (Homo sapiens, HeLa, Table 2) amounted to 18 µM; in assay [2] (setting [3]), 4 µM.

For the compound `C/C(=C\C(=O)N1CCC=CC1=O)c1ccccc1` [compound 9], the EC50 in assay [1] (Homo sapiens, HeLa, Table 1) is above 20 µM; in assay [2] (setting [4]) it was 14 µM.

As to `O=C1C=CCCN1C(=O)CCC(=O)N1CCC=CC1=O` [compound 77], the EC50 in assay [1] (Homo sapiens, HeLa, Table 2) is 15 µM; in assay [2] (setting [3]) it was 5.5 µM.

With `COc1cc(/C=C/C(=O)N2C(=O)C=CCC2c2ccsc2)cc(OC)c1OC` (stereo not shown) [Cpd. 7], the EC50 was 2 µM in assay [1] (Homo sapiens, HeLa, Table 2) and 2 µM in assay [2] (setting [3]).

For `CC1=C(C(=O)N2CCC=CC2=O)Cc2ccccc21` [compound 42], the EC50 in assay [1] (Homo sapiens, HeLa, Table 2) was above 20 µM; in assay [2] (setting [3]) it was 12 µM.

`COc1cc(/C=C/C(=O)N2CCC=C(C#Cc3ccsc3)C2=O)cc(OC)c1OC` [compound 69]: the EC50 in assay [1] (Homo sapiens, HeLa, Table 2) turned out to be 2 µM; in assay [2] (setting [3]), 1 µM.

On to `COc1cc(/C=C/C(=O)N2CC=CCC2=O)cc(OC)c1OC` [compound 46], for which the EC50 in assay [1] (Homo sapiens, HeLa, Table 2) is above 20 µM; in assay [2] (setting [3]), 13 µM.

`COc1cc(/C=C/C(=O)N2CCC(C)=C(C)C2=O)cc(OC)c1OC` [compound 47]: the EC50 was above 20 µM in assay [1] (Homo sapiens, HeLa, Table 2) and above 20 µM in assay [2] (setting [3]).

For the compound `COc1cc(/C=C/C(=O)N2CCC=C(c3ccccc3)C2=O)cc(OC)c1OC` [compound 18], the EC50 in assay [1] (Homo sapiens, HeLa, Table 1) is above 20 µM; in assay [2] (setting [4]) it was above 20 µM.

Turning to `COc1cc(/C=C/C(=O)N2CCC=CC2=O)cc(OC)c1OCCN(C)CCOc1c(OC)cc(/C=C/C(=O)N2CCC=CC2=O)cc1OC` [compound 67], the EC50 in assay [1] (Homo sapiens, HeLa, Table 2) is 0.5 µM; in assay [2] (setting [3]), 0.2 µM.

As to `COc1cc(/C=C/C(=O)N2CCC=C(C#Cc3ccc(F)cc3)C2=O)cc(OC)c1OC` [compound 68], the EC50 in assay [1] (Homo sapiens, HeLa, Table 2) was determined as 0.9 µM; in assay [2] (setting [3]), 0.4 µM.

Turning to `O=C1C=CCCN1C(=O)/C=C/C(=O)N1CCC=CC1=O` [compound 74], the EC50 in assay [1] (Homo sapiens, HeLa, Table 2) was 11 µM; in assay [2] (setting [3]), 2.3 µM.

In the case of `COc1cc(/C=C/C(=O)N2CCC=C(C3CCCCC3)C2=O)cc(OC)c1OC` [compound 44], the EC50 is above 20 µM in assay [1] (Homo sapiens, HeLa, Table 2) and above 20 µM in assay [2] (setting [3]).

With `COc1cc(/C=C/C(=O)N2CCC=C(C#CC3CCCCC3)C2=O)cc(OC)c1OC` [compound 59], the half-maximal effective concentration (EC50) amounted to 3 µM in assay [1] (Homo sapiens, HeLa, Table 2) and 1.5 µM in assay [2] (setting [3]).

In the case of `COc1cc(/C=C/C(=O)N2CCC=C(C#Cc3cccc(Cl)c3)C2=O)cc(OC)c1OC` [compound 40], the 50% effective concentration (EC50) is 5 µM in assay [1] (Homo sapiens, HeLa, Table 2) and 1.5 µM in assay [2] (setting [3]).

For `COc1cc(/C=C/C(=O)N2CCC=CC2=O)cc(OC)c1OCCN(CCOc1c(OC)cc(/C=C/C(=O)N2CCC=CC2=O)cc1OC)CCOc1c(OC)cc(/C=C/C(=O)N2CCC=CC2=O)cc1OC` [compound 41], the EC50 in assay [1] (Homo sapiens, HeLa, Table 2) came to 0.3 µM; in assay [2] (setting [3]), 0.1 µM.

For `COc1cc(/C=C/C(=O)N2CCC=C(C#CC3=CCCCC3)C2=O)cc(OC)c1OC` [compound 45], the half-maximal effective concentration (EC50) in assay [1] (Homo sapiens, HeLa, Table 2) worked out at 5 µM; in assay [2] (setting [3]) it was 3 µM.

On to `COc1cc(/C=C/C(=O)N2CCC=C(C#Cc3ccccc3Cl)C2=O)cc(OC)c1OC` [compound 35], for which the EC50 in assay [1] (Homo sapiens, HeLa, Table 2) came out at 1.5 µM; in assay [2] (setting [3]) it was 0.6 µM.

Regarding `COc1cc(/C=C/C(=O)N2CCC=C(c3ccc(C)cc3)C2=O)cc(OC)c1OC` [compound 66], in assay [1] (Homo sapiens, HeLa, Table 2), the EC50 is above 20 µM.
